{"source": "ChEMBL document CHEMBL1121944", "about": "“Conformation-activity study of 4-phenylpiperidine analgesics” (1982)", "key": {"[1]": {"test": "Relative potency was determined to 3-dimethyl prodine after brain penetration", "type": "functional"}, "[2]": {"test": "Analgesic activity was determined", "type": "functional"}}}
{"compound": "CCC(=O)OC1(c2ccccc2)CCN(C)CC1", "values": [{"measurement": "Relative potency", "setting": "[1]", "result": 1}, {"measurement": "ED50", "setting": "[2]", "result": 1, "unit": "mg/kg"}]}
{"compound": "CCC(=O)OC1(c2ccccc2)CCN(C)CC1C", "note": "(stereo unspecified) [ALPHAPRODINE]", "values": [{"measurement": "Relative potency", "setting": "[1]", "result": 1.24}, {"measurement": "ED50", "setting": "[2]", "result": 1.45, "unit": "mg/kg"}]}
{"compound": "CCC(=O)O[C@@]1(c2ccccc2)CCN(C)C[C@@H]1C", "note": "[BETAPRODINE]", "values": [{"measurement": "Relative potency", "setting": "[1]", "result": 1.77}, {"measurement": "ED50", "setting": "[2]", "result": 5.21, "unit": "mg/kg"}]}
